Data: US5661147A, “Imidazoquinazoline derivatives” (Kyowa Hakko Kogyo Co., Ltd., priority 1993, dated 1997)
Where a name gives a salt, the structure may show the parent alone.

How the values were obtained:
[1] = target: T1, PDE V (cGMP-specific PDE) (Canis lupus familiaris, UniProt O77746); test: Inhibitory activity on PDE V purified from canine tracheal smooth muscle (Test Example 1); type: biochemical; conditions: 1.0 μM [3H]cGMP substrate; for inhibition at 0.001 µM: 1 nM, read-out: PDE Inhibitory activity, PDE V, Percent inhibition
T1 construct: purified from canine tracheal smooth muscle; from tissue; host or cells: canine tracheal smooth muscle
Method: The inhibitory activity on PDE derived from canine tracheal smooth muscle
The measurement of the PDE I activity was carried out using 1.0 μM [^3 H]cAMP as a substrate in the presence of 0.4 mM CaCl2 and 20 units/ml calmodulin. The measurement of the PDE II activity was carried out using 1.0 μM [^3 H]cAMP as a substrate in the presence of 10 μM cGMP. The measurement of the PDE III, IV and V activity was carried out using, as a substrate, 1.0 μM [^3 H]cAMP, 1.0 μM [^3 H]cAMP and 1.0 μM [3H]cGMP, respectively. […] Respective reactions were carried out in a buffer having the following composition:
50 mM N,N-bis(2-hydroxyethyl)-2-aminoethanesulfonic acid (pH 7.2), 1 mM MgCl2, 0.1 mg/ml soybean trypsin inhibitor.
(§1) The reaction was started by addition of an enzyme and stopped by addition of hydrochloric acid after 10 to 30 minutes at 30° C. Thereafter, sodium hydroxide was added to neutralize and 5'-AMP or 5'-GMP was converted into adenosine or guanosine using 5'-nucleotidase. The reaction solution was subjected to DEAE-Sephadex A-25 column. [^3 H]Adenosine [^3 H]guanosine was eluted with distilled water and the radioactivity was measured with a liquid scintillation counter.

[2] = target: T2, PDE III (cAMP-specific PDE which is inhibited by cGMP) (Canis lupus familiaris, UniProt A0A8I3NYE0); test: Inhibitory activity on PDE III purified from canine tracheal smooth muscle (Test Example 1); type: biochemical; conditions: 1.0 μM [3H]cAMP substrate, 10 μM rolipram added; for inhibition at 1 µM: read-out: PDE Inhibitory activity, PDE III, Percent inhibition
T2 construct: purified from canine tracheal smooth muscle; from tissue; host or cells: canine tracheal smooth muscle
T2 sequence (A0A8I3NYE0 1-1135): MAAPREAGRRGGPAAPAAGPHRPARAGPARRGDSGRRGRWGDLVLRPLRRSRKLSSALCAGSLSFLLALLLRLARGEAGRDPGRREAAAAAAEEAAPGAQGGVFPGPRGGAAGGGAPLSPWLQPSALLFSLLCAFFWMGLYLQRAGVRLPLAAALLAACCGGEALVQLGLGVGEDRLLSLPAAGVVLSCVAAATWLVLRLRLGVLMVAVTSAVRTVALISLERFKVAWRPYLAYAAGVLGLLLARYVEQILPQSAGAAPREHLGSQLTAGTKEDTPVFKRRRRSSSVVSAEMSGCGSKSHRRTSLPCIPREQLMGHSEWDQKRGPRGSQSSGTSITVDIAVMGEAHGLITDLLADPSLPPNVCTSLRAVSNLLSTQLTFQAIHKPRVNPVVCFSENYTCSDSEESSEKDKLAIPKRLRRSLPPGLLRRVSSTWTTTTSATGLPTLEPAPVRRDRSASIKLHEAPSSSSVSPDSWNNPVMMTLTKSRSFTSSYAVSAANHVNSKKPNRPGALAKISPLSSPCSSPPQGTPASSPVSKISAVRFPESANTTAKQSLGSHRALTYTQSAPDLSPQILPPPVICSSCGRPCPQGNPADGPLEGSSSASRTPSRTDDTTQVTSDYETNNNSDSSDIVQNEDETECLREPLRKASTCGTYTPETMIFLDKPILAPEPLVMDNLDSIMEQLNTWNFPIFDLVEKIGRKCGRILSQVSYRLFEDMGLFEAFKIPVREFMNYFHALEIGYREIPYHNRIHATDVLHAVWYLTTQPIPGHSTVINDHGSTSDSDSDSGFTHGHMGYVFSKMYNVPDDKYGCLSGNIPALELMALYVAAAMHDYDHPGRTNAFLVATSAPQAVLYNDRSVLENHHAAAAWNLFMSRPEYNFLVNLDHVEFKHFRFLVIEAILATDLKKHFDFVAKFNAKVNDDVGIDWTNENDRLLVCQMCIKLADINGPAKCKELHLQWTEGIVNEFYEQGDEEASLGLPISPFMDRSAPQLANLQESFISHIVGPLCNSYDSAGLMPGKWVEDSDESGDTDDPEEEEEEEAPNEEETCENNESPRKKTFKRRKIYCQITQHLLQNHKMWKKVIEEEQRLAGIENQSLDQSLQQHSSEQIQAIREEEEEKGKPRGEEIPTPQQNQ
Method: as §1

[3] = test system: PDE I (PDE which is activated by calmodulin); test: Inhibitory activity on PDE I purified from canine tracheal smooth muscle (Test Example 1); type: biochemical; conditions: 10 μM; 1.0 μM [3H]cAMP substrate, CaCl2 and calmodulin
Method: as §1

[4] = test system: PDE IV (cAMP-specific PDE); test: Inhibitory activity on PDE IV purified from canine tracheal smooth muscle (Test Example 1); type: biochemical; conditions: 1.0 μM [3H]cAMP substrate, 25 μM cGMP added
Method: as §1

[5] = test system: PDE II (PDE which is activated by cGMP); test: Inhibitory activity on PDE II purified from canine tracheal smooth muscle (Test Example 1); type: biochemical; conditions: 10 μM; 1.0 μM [3H]cAMP substrate, 10 μM cGMP
Method: as §1

[6] = Hypotensive effects in guinea pigs (Test Example 2); type: in vivo, guinea pig; conditions: anesthetized guinea pigs, in DMSO
Method: Hypotensive effects in guinea pigs.
After a guinea pig, anesthetized with pentobarbital, was fixed in the supine position, a cannula was inserted into trachea and guinea pig was artificially ventilated under the conditions of a tidal volume of […] and 60 breathes/min. The carotid artery and the jugular vein were cannulated for measuring arterial blood pressure and administering drugs, respectively. Drugs were dissolved in DMSO (50 μl) and administered intravenously using the above cannula.
The maximum percent values from the pre-drug level (100%) in mean blood pressure (mBP) were obtained.

Row | SMILES | inhibition at 0.001 µM [1] [%] | inhibition at 1 µM [2] [%] | other results
1 | CCn1c(=O)[nH]c2cc3c(NCc4cccc(OC)c4)ncnc3cc21 [Compound 15, 3-ethyl-8-(3-methoxybenzylamino)-2,3-dihydro-1H-imidazo[4,5-g]quinazoline-2-one hydrochloride] | 67 | 50 | –
2 | CCn1c(=O)[nH]c2cc3c(NCc4ccc(F)c(F)c4)ncnc3cc21 [Compound 20, 8-(3,4-difluorobenzylamino)-3-ethyl-2,3-dihydro-1H-imidazo[4,5-g]quinazoline-2-one hydrochloride] | 69 | 47 | –
3 | CCn1c(=O)[nH]c2cc3c(NCC4CCCO4)ncnc3cc21 (stereo not drawn) [Compound 30, 3-ethyl-8-(2,3,4,5-tetrahydro-2-furylmethylamino)^- 2,3-dihydro-1H-imidazo[4,5-g]quinazoline-2-one hydrochloride] | – | – | PDE Inhibitory activity, PDE I, Percent inhibition [3]: 58%; IC50 [1]: 0.18 nM; IC50 [4]: > 10000 nM; PDE Inhibitory activity, PDE II, Percent inhibition [5]: 61%; IC50 [2]: 1100 nM
4 | CCn1c(=S)[nH]c2cc3c(NCc4ccccc4)ncnc3cc21 [Compound 39, 8-benzylamino-3-ethyl-2,3-dihydro-1H-imidazo[4,5-g]quinazoline-2-thione] | – | – | maximum percent values from the pre-drug level (100%) in mean blood pressure (mBP) ([6]; 1 μg/kg i.v.): 100.20%; maximum percent values from the pre-drug level (100%) in mean blood pressure (mBP) ([6]; 3 μg/kg i.v.): 80.00%; maximum percent values from the pre-drug level (100%) in mean blood pressure (mBP) ([6]; 10 μg/kg i.v.): 72.30%; maximum percent values from the pre-drug level (100%) in mean blood pressure (mBP) ([6]; 30 μg/kg i.v.): 51.20%
5 | CCCn1c(=S)[nH]c2cc3c(NCc4ccccc4)ncnc3cc21 [Compound 42, 8-benzylamino-3-(n-propyl)-2,3-dihydro-1H-imidazo[4,5-g]quinazoline-2-thione] | 94 | 27 | –
6 | CCn1c(=S)[nH]c2cc3c(NCc4ccncc4)ncnc3cc21.Cl.Cl [Compound 47, 3-ethyl-8-(4-pyridylmethylamino)-2,3-dihydro-1H-imidazo[4,5-g]quinazoline-2-thione dihydrochloride] | 91 | 60 | PDE Inhibitory activity, PDE I, Percent inhibition [3]: 12%; PDE Inhibitory activity, PDE IV, Percent inhibition ([4]; 10 μM): 20%; PDE Inhibitory activity, PDE II, Percent inhibition [5]: 19%
7 | CCn1c(=S)[nH]c2cc3c(NCc4cccc(OC)c4)ncnc3cc21 [Compound 51, 3-ethyl-8-(3-methoxybenzylamino)-2,3-dihydro-1H-imidazo[4,5-g]quinazoline-3-thione hydrochloride] | 97 | 48 | –
8 | CCn1c(=S)[nH]c2cc3c(NCc4cccc(C(F)(F)F)c4)ncnc3cc21 [Compound 54, 3-ethyl-8-(3-trifluoromethylbenzylamino)-2,3-dihydro-1H-imidazo[4,5-g]quinazoline-2-thione hydrochloride] | 96 | 32 | –
